# “And” between values parts separate entries of the source, which are not always exact repeats. Equal entries are not always repeated.
# Key:
# hTA1 [1] = target: T1, hTA1 (Homo sapiens, UniProt Q96RJ0); experiment: Screen of 89 aminergic compounds at 10 µM, cAMP accumulation in HEK293T cells; format: cell-based; conditions: 10 µM of compound; HEK293T; threshold log2-fold change of 2;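 note: HEK293T cells co-transfected with hTA1 and GloSensor cAMP reporter, cAMP accumulation detected by luminescence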
# T1 construct: expressed in transfected cells; host or cells: HEK293T
# T1 sequence (Q96RJ0 1-339): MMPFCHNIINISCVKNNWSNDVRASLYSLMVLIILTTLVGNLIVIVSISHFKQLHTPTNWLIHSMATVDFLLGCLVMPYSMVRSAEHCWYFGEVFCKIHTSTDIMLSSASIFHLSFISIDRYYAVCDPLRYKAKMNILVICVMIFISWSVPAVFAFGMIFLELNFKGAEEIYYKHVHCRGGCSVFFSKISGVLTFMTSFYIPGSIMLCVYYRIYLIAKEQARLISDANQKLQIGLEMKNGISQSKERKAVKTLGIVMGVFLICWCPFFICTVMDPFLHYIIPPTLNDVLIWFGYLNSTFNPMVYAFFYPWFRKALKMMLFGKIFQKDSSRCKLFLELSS
# hTA1 [2] = target: T1, hTA1; experiment: GloSensor cAMP accumulation assay, concentration response, wild-type hTA1 in transfected HEK293T cells; format: cell-based; conditions: log[Compound], replicate wells;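 note: luminescence read after 30 min compound exposure at room temperature in cells preloaded with D-Luciferin, reflecting Gs-driven cAMP rise, efficacy scaled to the maximal β-PEA response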
Structure (SMILES),increase of signal over DMSO-treated controls (hTA1 activation) (hTA1 [1]) [fold],Normalized Luminescence Counts for WT hTA1 (hTA1 [2]; M = -5),Normalized Luminescence Counts for WT hTA1 (hTA1 [2]; M = -5.522),Normalized Luminescence Counts for WT hTA1 (hTA1 [2]; M = -6),Normalized Luminescence Counts for WT hTA1 (hTA1 [2]; M = -6.522),Normalized Luminescence Counts for WT hTA1 (hTA1 [2]; M = -7),Normalized Luminescence Counts for WT hTA1 (hTA1 [2]; M = -7.522),Normalized Luminescence Counts for WT hTA1 (hTA1 [2]; M = -8),Normalized Luminescence Counts for WT hTA1 (hTA1 [2]; M = -8.522),Normalized Luminescence Counts for WT hTA1 (hTA1 [2]; M = -9),Normalized Luminescence Counts for WT hTA1 (hTA1 [2]; M = -9.522),Normalized Luminescence Counts for WT hTA1 (hTA1 [2]; M = -10),Normalized Luminescence Counts for WT hTA1 (hTA1 [2]; M = -10.522),Normalized Luminescence Counts for WT hTA1 (hTA1 [2]; M = -11),Normalized Luminescence Counts for WT hTA1 (hTA1 [2]; M = -11.522),Normalized Luminescence Counts for WT hTA1 (hTA1 [2]; M = -12),Normalized Luminescence Counts for WT hTA1 (hTA1 [2]; M = -12.522)
CCN(CC)C(=O)[C@@H]1C=C2c3cccc4[nH]cc(c34)C[C@H]2N(C)C1 [LSD],≥ 4,23.2463 and 21.0198 and 23.6719 and 20.4035 and 14.0827 and 19.0998,8.12 and 8.709 and 6.057 and 5.51 and 6.34 and 6.182,3.405 and 1.833 (2×) and 1.7572 and 2.35 and 2.5473,0.7855 and 1.3421 and 1.375 and 0.5325 and 0.8881 and 0.6116,-0.0003118 and 0.7527 and 0.5563 and 0.256 and -0.2575 and 0.2165,-0.164 and -0.426 and 0.2944 and -0.4946 (2×) and -0.09953,0.7855 and 0.6873 and 0.03243 and 0.1375 and 0.6116 and -0.2575,-0.2295 and 0.4253 and 0.09791 and 0.05849 and -0.2971 and 0.6511,-0.8516 and -0.1968 and 0.1634 and 0.493 and -0.09953 and 0.2955,-0.295 and -0.3605 and -0.426 and -0.1785 and -0.3761 and -0.06003,-0.09854 and 0.2289 and -0.3605 and -0.4946 and -0.5736 and -0.6131,-0.4587 (2×) and -0.1313 and -0.218 and -1.245 and 0.01898,-0.09854 and 0.3598 and 0.6873 and -0.1785 and -0.09953 and 1.007,0.2289 and 1.08 and 0.3926 and 1.086 and 1.046 and -0.2971,-0.4587 and 0.1634 and 0.4253 and 0.7696 and -0.2575 and 1.836,1.735 and 0.5236 and 0.2616 and 0.05849 and -0.218 and 0.3745
C[C@H](N)Cn1ccc2cc(F)c(Cl)cc21 [Ro600175],≥ 4,52.641 and 46.7523 and 44.37 and 49.7206 and 44.9424 and 49.1048,20.1192 and 21.0025 and 20.1995 and 33.6184 and 30.3798 and 33.3903,10.3493 and 9.439 and 10.7776 and 14.1863 and 14.9846 and 14.3574,3.39 and 1.971 and 3.3096 and 6.785 and 7.013 and 6.8993,0.6865 and 0.9274 and 0.7668 and 2.03 and 1.973 and 1.7904,-0.2504 and 0.2582 and -0.2236 and 0.6842 and 0.6044 and 0.3991,0.5258 and 0.5794 and 1.275 and 0.4333 and 0.3763 and 0.3649,0.4991 and -0.1166 and 0.392 and 0.03421 and 0.3649 and 0.2509,0.01728 and 0.7935 and -0.1969 and 0.1026 and 0.3877 and 0.2737,0.07081 and -0.08979 and -0.1166 and -0.1482 and -0.114 and 0.07983,0.1243 and -0.009489 and 0.4188 and -0.1825 and -0.0114 and -0.03421,-0.06302 and -0.3842 and 0.1779 and -0.2053 and 0 and -0.05702,0.6329 and 0.3117 and 0.7132 and -0.06842 and 0.4447 and 0.2509,0.4188 and 0.7668 and 0.8738 and 0.4676 and 0.2509 and 0.707,0.5258 and 0.5526 and 1.302 and -0.114 and 0.2737 and 0.1368,0.2046 and 0.1779 and 0.2849 and 0.2623 and 0.4219 and 0.2395
O=C1Nc2cc(Cl)c(Cl)cc2N2CCNCC12 (stereo not drawn) [WAY161503],≥ 4,13.2601 and 18.8261 and 16.7307 and 26.6058 and 24.591 and 22.5763,7.105 and 8.152 and 8.742 and 7.88 and 6.893 and 7.327,0.3926 and 0.6218 and 0.4581 and 2.389 and 1.639 and 1.7967,-0.0003118 and -0.03305 and -0.426 and 0.5325 and 0.2955 and 0.6511,-0.426 and -1.114 and -0.7861 and -0.2575 (2×) and -0.3366,-0.8516 and -1.277 and -0.6879 and -0.3366 and -0.4946 and -1.166,-0.09854 and -0.3605 (2×) and 0.09799 and 0.6511 and -0.3761,-0.3605 and -0.7206 and -0.3932 and 1.165 and 1.046 and 0.6116,-1.048 and -0.2622 and -0.8516 and -0.06003 and 0.2165 and 0.414,-1.277 and -0.8516 and -0.7861 and 0.6116 and 0.01898 and -0.6526,-0.7206 and -0.7534 and -0.3605 and -0.8106 and -0.1785 and -1.087,-0.5897 and -0.09854 and -0.6224 and 0.01898 and -0.3761 and -0.7316,0.09791 and 0.03243 and -0.6224 and -0.2971 and 0.5325 and 0.3745,-0.0003118 and -0.5242 and 0.06517 and -0.09953 and -0.4156 and 0.177,-0.3277 and -0.295 and -0.8189 and 0.4535 and -0.2971 and -0.4156,-0.3932 and -0.5897 (2×) and 0.4535 and -0.4551 and 0.09799
CNC[C@H](O)c1ccc(O)c(O)c1 [epinephrine],≥ 4,-0.5341 and -0.7316 and 0.493,-0.1785 and 2.231 and -0.218,0.4535 and -0.139,0.493 and 1.046 and -0.7316,-1.759 and -1.996 and -0.9686,-2.549 and -2.2723 and -2.114,-2.035 and -0.8106 and -2.154,-1.917 and -1.68 and -2.233,-2.391 and -2.075 and -2.628,-2.588 and -2.667 and -2.549,-2.865 and -2.47 and -2.391,-2.628 and -2.193 and -2.549,-2.3118 and -2.193 and -2.114,-2.391 and -1.4427 and -1.956,-2.233 and -1.4427 and -1.917,-2.075 and -2.114 and -1.798
CN1C[C@H](C(=O)N[C@]2(C)O[C@@]3(O)[C@@H]4CCCN4C(=O)[C@H](Cc4ccccc4)N3C2=O)C=C2c3cccc4[nH]cc(c34)C[C@H]21 [ergotamine],≥ 4,44.5775 and 42.7529 and 37.8036,33.1851 and 35.1808 and 34.0176,22.5339 and 18.3829 and 18.9303,13.3539 and 12.6012 and 11.6889,5.28 and 4.447 and 4.037,2.783 and 2.007 and 2.3948,1.311 and 0.7184 and 0.9351,1.095 and 0.9921 and 1.163,0.7184 and 0.3649 and 0.5816,0.2737 and 0.2167 and 0.1254,0.1482 and 0.4219 and 0.2395,0.1825 and 0.5018 and 0.1939,0.114 and 0.536 and 0.4333,0.6956 and 0.3649 and 0.8895,0.479 and 0.6728 and 0.4562,0.3991 and 0.593 and 0.5018
C[C@H]1CNCCc2ccc(Cl)cc21 [lorcaserin],≥ 4,36.902 and 34.0112 and 1.008 and 64.4771 and 65.1158 and 60.8849,12.6245 and 12.4103 and 0.5526 and 38.1001 and 37.3361 and 35.7852,4.327 and 4.728 and 0.4991 and 15.3153 and 15.7258 and 16.125,2.1854 and 0.9809 and 0.8203 and 4.949 and 4.904 and 5.611,0.4723 and 0.2314 and 1.222 and 2.349 and 1.654 and 2.0983,-0.3039 and -0.5448 and 0.6329 and 0.4676 and 0.5018 and 0.5816,0.7132 and 0.4188 and 1.757 and 0.2053 and 0.05702 and 0.536,-0.06302 and 0.9006 and 0.8738 and 0.593 and 0.5702 (2×),0.2582 and -0.1433 and 0.5258 and 0.3193 and 0.2737 and 0.3877,0.2582 and -0.4913 and 0.7132 and 0.3877 and 0.2851 and 0.2965,-0.06302 and -0.4378 and 0.6865 and 0.4904 and 0.2737 and 0.2851,-0.5448 and -0.8928 and 1.141 and 0.1825 and 0.2281 and -0.06842,0.1511 and -0.08979 and 0.7668 and -0.1368 and -0.1254 and -0.1482,0.9809 and -0.009489 and 0.6329 and 0.3991 and 0.3421 and 0.2167,0.6865 and 0.6329 and 1.195 and 0.1825 and 0.0114 and -0.07983,0.4455 and 0.4723 and 1.141 and 0.03421 and 0.0114 and -0.114
